Test results: PMC11240924, “Isolation, Identification, and Biological Activities of a New Chlorin e6 Derivative” (International Journal of Molecular Sciences, 2024)

Experiments:
BV2 cells = assay: Cellular uptake (plate reader and FOBI), BV2; type: cell-based; details: 3 h; for fluorescence intensity of treated cells compared to control (uptake): BV2, 100 μΜ
Method: (§1) A quantitly of 5 × 10^5 of MIA PaCa-2 and 2 × 10^5 of BV2 cells per well were seeded in a 6-well plate and were treated with or without chlorin e6 or rhodin g7 7^1-ethyl ester (10 and 100 μΜ). After 3 h, the cells were harvested and washed twice with 1 × phosphate buffered saline (DPBS) to remove the remaining chlorin e6 or rhodin g7 7^1-ethyl ester from the culture media and cell surfaces. The cells from each well were resuspended in 1 mL of 1 × DPBS and measured using FOBI and a plate reader. chlorin e6 or rhodin g7 7^1-ethyl ester-treated cells were divided into triplicate wells of a black-walled 96-well plate, each containing 100 µL. The measurement was taken immediately after aliquoting using a Spark Multimode Microplate Reader (Tecan Trading AG, Männedorf, Switzerland) for spectroscopy. The fluorescence was measured using excitation and emission peaks of 405 nm and 500–800 nm. For the FOBI analysis, 700 µL of chlorin e6 or rhodin g7 7^1-ethyl ester-treated cells was added to the e-tubes, and bioimaging was performed immediately using the fluorescence-labeled organism bioimaging instrument (FOBI) system (Cellgentek, Daejeon, Republic of Korea). Each image was exposed for 0.3 s, with a 405 nm wavelength LED, and an emmission light of 502 nm. The results were further quantitatively measured using the “NEOimage FOBI” software.

[1] = MTT cytotoxicity (PDT and dark), B16F10; type: cell-based, Murine; details: mouse, B16F10 cells, no illumination, MTT after 24 h
Source text: (§2) B16F10 (KCLB80008), MIA PaCa-2 (KCLB21420), PANC-1 (KCLB21469), HT-29 (KCLB30038), AsPC-1 (KCLB21682), and Raw 264.7 (KCLB40071) cells were procured from the Korean Cell Line Bank (KCLB, Seoul, Republic of Korea). AsPC-1 and RAW264.7 were thawed and maintained in RPMI-1640 media (Life Technologies corporation, Carlsbad, CA, USA) supplemented with 10% fetal bovine serum (Life Technologies corporation, USA) and 1% penicillin and streptomycin (Life Technologies corporation, USA), while MIA PaCa-2, PANC-1, HT-29, and B16F10 cell lines were cultured in DMEM (Life technologies corporation, USA) containing 10% fetal bovine serum and 1% penicillin and streptomycin. All the cells were cultured at 37 °C in a 5% CO2 incubator.
(§3) After seeding B16F10 or MIA PaCa-2 at a density of 5 × 10^3 cells/well and PANC-1, HT-29, or AsPC-1 at a density of 1 × 10^4 cells/well in 96-well plates, the cells were incubated overnight at 37 °C in a CO2 incubator. The cells were exposed to different doses of either chlorin e6 or rhodin g7 7^1-ethyl ester (0, 2.5, 5, 10, 20, 40, and 80 µM) for 3 h. After the incubation, the cells were either subjected to a 660 nm laser with a power density of 50 mW (0.5 J/cm^2) or not and were further incubated for 24 h at 37 °C. Moreover, the MTT assay was used to analyze the cell viability. The absorbance values of 540 nm were then measured using a microplate reader (Multiskan GO, Thermo Fisher Scientific, Oy, Ratastie 2, FI-01620 Vantaa, Finland).

B16F10 = assay: MTT cytotoxicity (PDT and dark), B16F10; type: cell-based, Murine; details: Mus musculus, B16-F10, light or radiation study, 3 h exposure, 660 nm laser 0.5 J/cm^2, MTT after 24 h
Source text: as §2, §3

[2] = Singlet oxygen photogeneration (DPBF quenching); details: for change of DPBF absorbance at higher doses: 5 and 10 µM
Method: Singlet oxygen photoregeneration was carried out using 1, 3-diphenylisobenzofuran (DPBF) in DMSO. DPBF is a selective ^1O2 acceptor that reacts with ^1O2. The sample solutions of DPBF (50 μM) which contained DPBF only (50 μM, as a control), MB (1, 5, and 10 μM), chlorin e6 (1, 5, and 10 μM), and rhodin g7 7^1-ethyl ester (1, 5, and 10 μM) were prepared under dark conditions. All of the samples were placed in a 96-well plate, which was covered with aluminum foil. The samples were then irradiated (660 nm, 50 mW, 0.5 J/cm^2) for 1 min and 40 s, and after irradiation, the visible spectra of the sample solutions were measured spectrophotometrically. The normalized absorbance of DPBF at 418 nm was measured in these samples. The ^1O2 photo-generation activities of MB, chlorin e6, and rhodin g7 7^1-ethyl ester can be compared with the different absorbance decay of each sample relative to the DPBF control sample.

ICR mice [3] = assay: Biodistribution, ex vivo organ fluorescence; type: in vivo; details: 2.5 mg/kg intravenous
Method: The animal study was approved by the Institutional Animal Care and Use Committee of the Dongsung Cancer Center under protocol IACUC # ds0022010107-2. The experiments were carried out in compliance with the ARRIVE guidelines. Male ICR mice (4 weeks old, OrientBio, Seongnam City, Republic of Korea) were used for the biodistribution study. The biodistribution analysis for rhodin g7 7^1-ethyl ester was calculated using tissue fluorescence. ICR mice (n = 7) were injected with or without rhodin g7 7^1-ethyl ester (2.5 mg/kg) intravenously. After the administration of rhodin g7 7^1-ethyl ester for 0, 24, 48, 72, 96, and 120 h, the mice were sacrificed, and their organs (kidney, spleen, heart, lungs, liver, skin, and pancreas) were resected. Fluorescence imaging was used to determine the ex vivo organ distributions of rhodin g7 7^1-ethyl ester utilizing the FOBI imaging system (Neo-Science, Suwon, Republic of Korea). For the rhodin g7 7^1-ethyl ester extraction, the organ tissues were then mixed with lysis buffer, homogenized in a tissue homogenizer, and centrifuged at 9000 rpm for 15 min. The rhodin g7 7^1-ethyl ester content in the supernatant was then evaluated using a Spark Multimode Microplate Reader (Tecan Trading AG, Männedorf, Switzerland) spectrophotometrically at 660 nm. The fluorescence intensity was adjusted to the tissue weight.

MIA PaCa-2 cells = assay: Cellular uptake (plate reader and FOBI), MIA PaCa-2; type: cell-based, Human; details: 3 h; for fluorescence intensity of treated cells compared to control (uptake): MIA PaCa-2, 100 μΜ
Method: as §1

[4] = MTT cytotoxicity (PDT and dark), AsPC-1; type: cell-based, Human; details: human, AsPC-1 cells, no illumination, MTT after 24 h
Source text: as §2, §3

AsPC-1 = assay: MTT cytotoxicity (PDT and dark), AsPC-1; type: cell-based, Human; details: Homo sapiens, ASPC1, light or radiation study, 3 h exposure, 660 nm laser 0.5 J/cm^2, MTT after 24 h
Source text: as §2, §3

ICR mice [5] = tested on: ICR mice; design: method as in PMID 30609768; details: chlorin e6, greatly declined at 24 h; cited from earlier work

| fluorescence intensity relative to chlorin e6 (uptake) (BV2 cells; BV2, FOBI system, 10 μΜ) [times] | fluorescence intensity relative to chlorin e6 (uptake) (BV2 cells; BV2, FOBI system, 100 μΜ) [times] | fluorescence intensity relative to chlorin e6 (uptake) (BV2 cells; BV2, plate reader, 10 μΜ) [times] | fluorescence intensity relative to chlorin e6 (uptake) (BV2 cells; BV2, plate reader, 100 μΜ) [times] | time of peak fluorescence intensity post injection, all organs (ICR mice [3]; 0-120 h) [h] | organ with greatest signal intensity (predominant accumulation) (ICR mice [3]; ex vivo FLI of excised organs) | fluorescence intensity relative to chlorin e6 (uptake) (MIA PaCa-2 cells; MIA PaCa-2, FOBI system, 10 μΜ) [times] | fluorescence intensity relative to chlorin e6 (uptake) (MIA PaCa-2 cells; MIA PaCa-2, FOBI system, 100 μΜ) [times] | fluorescence intensity relative to chlorin e6 (uptake) (MIA PaCa-2 cells; MIA PaCa-2, plate reader, 10 μΜ) [times] | fluorescence intensity relative to chlorin e6 (uptake) (MIA PaCa-2 cells; MIA PaCa-2, plate reader, 100 μΜ) [times] | Structure (SMILES) | fluorescence intensity of treated cells compared to control (uptake) (BV2 cells) | IC50 [1] [µM] | IC50 (B16F10) [µM] | more singlet oxygen compared to chlorin e6 alone ([2]; 1 µM) [%] | change of DPBF absorbance at higher doses [2] | fluorescence intensity of treated cells compared to control (uptake) (MIA PaCa-2 cells) | IC50 [4] [µM] | IC50 (AsPC-1) [µM] | time of maximum fluorescence intensity post injection (ICR mice [5]) [h] |
| --- | --- | --- | --- | --- | --- | --- | --- | --- | --- | --- | --- | --- | --- | --- | --- | --- | --- | --- | --- |
| 1.1 | 1.4 | 2.2 | 2 | 0 | liver | 1.02 | 1.3 | 3 | 1.4 | C=Cc1c(C)c2cc3nc(c(CC(=O)O)c4[nH]c(cc5nc(cc1[nH]2)C(C(=O)OCC)=C5CC)c(C)c4C(=O)O)[C@@H](CCC(=O)O)[C@@H]3C [rhodin g7 7^1-ethyl ester] | significant increase in fluorescence intensity | 262 | 12.3 | 11.12 | large increase in DPBF absorbance | significant increase in fluorescence intensity | 395 | 49.1 | – |
| – | – | – | – | – | – | – | – | – | – | C=Cc1c(C)c2cc3nc(c(CC(=O)O)c4[nH]c(cc5nc(cc1[nH]2)C(C)=C5CC)c(C)c4C(=O)O)[C@@H](CCC(=O)O)[C@@H]3C [chlorin e6] | significant increase in fluorescence intensity | 556 | 33.6 | – | large increase in DPBF absorbance | significant increase in fluorescence intensity | 248 | 30.4 | 0 |
